Laboratory results: patent US6642180B1, “Biphenyl-substituted cyclic ketoenols as pesticides” (Bayer Aktiengesellschaft, priority 1999, dated 2003)

Experiments:
Format in all cases: in vivo
[1] = test system: Sugar beet; test: Post-emergence test (greenhouse); conditions: 250 g ai./ha, after three weeks
Procedure: (§1) Solvent: 5 parts by weight of acetone
(§2) Emulsifier: 1 parts by weight of alkylaryl polyglycol ether
(§3) To produce a suitable preparation of active compound, 1 part by weight of active compound is mixed with the stated amount of solvent, the stated amount of emulsifier is added and the concentrate is diluted with water to the desired concentration.
(§4) Test plants of a height of 5-15 cm are sprayed with the preparation of active compound such that the particular amounts of active compound desired are applied per unit area. The concentration of the spray liquor is chosen such that the particular amounts of active compound desired are applied in 1000 l of water/ha.
(§5) After three weeks, the degree of damage to the plants is rated in % damage in comparison to the development of the untreated control.
(§6) 0% no effect (like untreated control)
(§7) Post-emergence/greenhouse

[2] = test system: Setaria; test: Post-emergence test (greenhouse); conditions: 250 g ai./ha, after three weeks
Procedure: as §1, §2, §3, §4, §5, §6, §7

[3] = test system: Alopecurus; test: Post-emergence test (greenhouse); conditions: 250 g ai./ha, after three weeks
Procedure: as §1, §2, §3, §4, §5, §6, §7

[4] = test system: Echinochloa; test: Post-emergence test (greenhouse); conditions: 250 g ai./ha, after three weeks
Procedure: as §1, §2, §3, §4, §5, §6, §7

[5] = test system: larvae of the mustard beetle (Phaedon cochleariae); test: Phaedon-larvae test; conditions: cabbage leaves dipped
Procedure: Phaedon-larvae Test Solvent: 7 parts by weight of dimethylformamide Emulsifier: 1 part by weight of alkylaryl polyglycol ether To produce a suitable preparation of active compound, 1 part by weight of active compound is mixed with a stated amount of solvent and emulsifier, and the concentrate is diluted with emulsifier-containing water to the desired concentration. Cabbage leaves (Brassica oleracea) are treated by being dipped into the preparation of active compound of the desired concentration and are populated with larvae of the mustard beetle (Phaedon cochleariae) while the leaves are still moist.

[6] = test system: Meloidogyne incognita; test: Meloidogyne test; conditions: sand, Meloidogyne incognita egg/larvae suspension, lettuce
Procedure: Solvent: 7 parts by weight of dimethylformamide
as §2
To produce a suitable preparation of active compound, 1 part by weight of active compound is mixed with the stated amounts of solvent and emulsifier, and the concentrate is diluted with water to the desired concentration.
Containers are filled with sand, solution of active compound, Meloidogyne incognita-egg/larvae suspension and lettuce seeds. The lettuce seeds germinate and the plants develop. On the roots, galls are formed.
After the desired period of time, the nematicidal action is determined in % by the gall formation. 100% means that no galls were found; 0% means that the number of galls on the treated plants corresponds to that of the untreated control.

[7] = test system: Setaria; test: Pre-emergence test (greenhouse); conditions: 250 g ai./ha, after 3 weeks
Procedure: as §1
(§8) Emulsifier: 1 part by weight of alkylaryl polyglycol ether
(§9) To produce a suitable preparation of active compound, 1 part by weight of active compound is mixed with the stated amount of solvent, with the stated amounts of emulsifiers added and the concentrate is diluted with water to the desired concentration.
(§10) Seeds of the test plants are sown in normal soil. After about 24 hours, the soil is sprayed with the preparation of active compound such that the particular amounts of active compound desired are applied per unit area. The concentration of the spray liquor is chosen such that the particular amounts of active compound desired are applied in 1000 l of water/ha.
(§11) After 3 weeks, the degree of damage to the plants is rated in % damage in comparison to the development of the untreated control.
(§12) 0%=no effect (like untreated control)

[8] = test system: Avena fatua; test: Pre-emergence test (greenhouse); conditions: 250 g ai./ha, after 3 weeks
Procedure: as §1, §8, §9, §10, §11, §12

[9] = test system: Abutilon; test: Pre-emergence test (greenhouse); conditions: 250 g ai./ha, after 3 weeks
Procedure: as §1, §8, §9, §10, §11, §12

[10] = test system: Alopecurus; test: Pre-emergence test (greenhouse); conditions: 250 g ai./ha, after 3 weeks
Procedure: as §1, §8, §9, §10, §11, §12

[11] = test system: Echinochloa; test: Pre-emergence test (greenhouse); conditions: 250 g ai./ha, after 3 weeks
Procedure: as §1, §8, §9, §10, §11, §12

SMILES: COC(=O)N(C)COC1=C(c2c(C)cc(-c3ccc(Cl)cc3)cc2C)C(=O)CC(C)(C)C1 [Example I-8-1]
- degree of damage to the plants, Sugar beet [1]: 0%
- degree of damage to the plants, Setaria [2]: 100%
- degree of damage to the plants, Alopecurus [3]: 80%
- degree of damage to the plants, Echinochloa [4]: 100%
- activity (kill of beetle larvae) [5]: good activity
- activity (nematicidal action by gall formation) [6]: good activity
- degree of damage to the plants, Setaria [7]: 100%
- degree of damage to the plants, Avena fatua [8]: 90%
- degree of damage to the plants, Abutilon [9]: 80%
- degree of damage to the plants, Alopecurus [10]: 90%
- degree of damage to the plants, Echinochloa [11]: 100%
